{"source": "patent US12409200B2", "about": "“Composition for treating hair loss or promoting hair growth comprising milk thistle flower extract as an active ingredient” (BioSpectrum, Inc., priority 2021, dated 2025)", "tested_on": "human skin", "assay": "Human skin safety test: repeated insult patch test", "assay_type": "in vivo", "details": "for Number of subjects showing reaction ±: grade ±", "procedure": "In order to confirm that the extract of seed-removed milk thistle flowers according to the present invention is safe for human skin, a skin safety verification test was performed. To this end, a repeated insult patch test was conducted. Nourishing creams containing the seed-removed milk thistle extract of Example 1 in amounts of 0.1%, 0.5% and 1%, respectively, were prepared. Specifically, a water phase containing purified water, triethanolamine and propylene glycol was dissolved by heating to 70° C. and then emulsified by adding a solution obtained by dissolving beeswax, liquid paraffin, an oil component, an emulsifier and a preservative by heating to 70° C. After completion of emulsification, the solution was cooled to 45° C., and the seed-removed milk thistle flower extract was added thereto in amounts of 0.1%, 0.5% and 1% and dispersed therein, followed by cooling to 30° C. As the content of the extract of seed-removed milk thistle flowers was increased from 0.1% to 0.5% and 1%, the content of liquid paraffin was decreased from 9.91% to 9.51% and 9.01%, respectively, thereby preparing nourishing creams. Using the nourishing creams prepared as described above, a repeated insult patch test was conducted on the upper arm areas of 30 healthy adults every other day for a total of 9 times for 24 hours per time to determine whether the extract of seed-removed milk thistle flowers irritated the skin. The patch test was performed using a Finn chamber (Epitest Ltd., Finland). 15 μl of each of the external skin preparations was dropped into the chamber, and then the patch test was performed. Average degree of reaction=[[(reaction index×degree of reaction)/(total number of subjects×highest score (4)]×100]÷number of tests (9) [Equation 2] In the degree of reaction, ± represents a score of 1 point, […], and ++ represents a score of 4. When the average degree of reaction is less than 3, the corresponding composition is determined to be safe.", "data": [{"smiles": "CC(C)=CCC/C(C)=C/CC/C(C)=C/CC/C=C(\\C)CC/C=C(\\C)CCC=C(C)C", "note": "[Control (squalene), squalene]", "values": [{"measurement": "Average degree of reaction", "setting": "30 healthy adults, upper arm, 9 patch tests of 24 hours, Equation 2, less than 3 = safe", "value": 0.18}, {"measurement": "Number of subjects showing reaction ±", "setting": "Week 1, 1st test", "value": 1}, {"measurement": "Number of subjects showing reaction ±", "setting": "Week 1, 2nd test", "value": 1}]}]}
